Structures can show the parent of a compound that is named as a salt. Where two headings read alike, the source gives them in different places.
Tests used:
Test in all cases: AK assay 384-well format, Prestwick library screening
E. coli = format: cell-based, Escherichia coli; conditions: 50 μM final drug concentration; for fold induction at 50 µM: Escherichia coli, 3 h
[1] = system: A. baumannii strain 98-37-09; format: cell-based, Acinetobacter baumannii; conditions: 50 μM final drug concentration; for fold induction at 50 µM: Acinetobacter baumannii, 983709, 3 h
[2] = system: S. aureus strain USA300-0114; format: cell-based, Staphylococcus aureus; conditions: 50 μM final drug concentration; for fold induction at 50 µM: Staphylococcus aureus, USA300, 3 h
P. aeruginosa = format: cell-based, Pseudomonas aeruginosa; conditions: 50 μM final drug concentration; for fold induction at 50 µM: Pseudomonas aeruginosa, 3 h
K. pneumoniae = format: cell-based, Klebsiella pneumoniae; conditions: 50 μM final drug concentration; for fold induction at 50 µM: Klebsiella pneumoniae, 3 h
E. cloacae = format: cell-based, Enterobacter cloacae; conditions: 50 μM final drug concentration; for fold induction at 50 µM: Enterobacter cloacae, 3 h
E. faecium = format: cell-based, Enterococcus faecium; conditions: 50 μM final drug concentration; for fold induction at 50 µM: Enterococcus faecium, 3 h
[3] = 384-well format, cutoff for positive-scoring molecules 3-fold increase
[4] = planktonic E. coli, cutoff for positive-scoring molecules 3-fold increase, read-out: AK-based Prestwick Library Screening Results, E. coli (increase in extracellular AK activity)
[5] = planktonic A. baumannii, cutoff for positive-scoring molecules 3-fold increase, read-out: AK-based Prestwick Library Screening Results, A. baumannii (increase in extracellular AK activity)
[6] = planktonic S. aureus, cutoff for positive-scoring molecules 3-fold increase, read-out: AK-based Prestwick Library Screening Results, S. aureus (increase in extracellular AK activity)
[7] = planktonic P. aeruginosa, cutoff for positive-scoring molecules 3-fold increase, read-out: AK-based Prestwick Library Screening Results, P. aeruginosa (increase in extracellular AK activity)
[8] = planktonic K. pneumoniae, cutoff for positive-scoring molecules 3-fold increase, read-out: AK-based Prestwick Library Screening Results, K. pneumoniae (increase in extracellular AK activity)
[9] = planktonic E. cloacae, cutoff for positive-scoring molecules 3-fold increase, read-out: AK-based Prestwick Library Screening Results, E. cloacae (increase in extracellular AK activity)
[10] = planktonic E. faecium, cutoff for positive-scoring molecules 3-fold increase, read-out: AK-based Prestwick Library Screening Results, E. faecium (increase in extracellular AK activity)
[11] = cutoff for positive-scoring molecules 3-fold increase

## CN(C)[C@@H]1C(O)=C(C(N)=O)C(=O)[C@@]2(O)C(O)=C3C(=O)c4c(O)ccc(Cl)c4[C@@H](O)[C@H]3C[C@@H]12 [Demeclocycline hydrochloride]
E. coli; planktonic, cutoff for positive-scoring molecules 3-fold increase, read-out: AK-based Prestwick Library Screening Results, E. coli (fold increase in extracellular AK activity)
  fold induction at 50 µM: 0.5
[1]; planktonic, cutoff for positive-scoring molecules 3-fold increase, read-out: AK-based Prestwick Library Screening Results, A. baumannii (fold increase in extracellular AK activity)
  fold induction at 50 µM: 3.4
[2]; planktonic, cutoff for positive-scoring molecules 3-fold increase, read-out: AK-based Prestwick Library Screening Results, S. aureus (fold increase in extracellular AK activity)
  fold induction at 50 µM: 7.1
P. aeruginosa; planktonic, cutoff for positive-scoring molecules 3-fold increase, read-out: AK-based Prestwick Library Screening Results, P. aeruginosa (fold increase in extracellular AK activity)
  fold induction at 50 µM: 0.4
K. pneumoniae; planktonic, cutoff for positive-scoring molecules 3-fold increase, read-out: AK-based Prestwick Library Screening Results, K. pneumoniae (fold increase in extracellular AK activity)
  fold induction at 50 µM: 0.2
E. cloacae; planktonic, cutoff for positive-scoring molecules 3-fold increase, read-out: AK-based Prestwick Library Screening Results, E. cloacae (fold increase in extracellular AK activity)
  fold induction at 50 µM: 1.3
E. faecium; planktonic, cutoff for positive-scoring molecules 3-fold increase, read-out: AK-based Prestwick Library Screening Results, E. faecium (fold increase in extracellular AK activity)
  fold induction at 50 µM: 0.9

## Cl.N=C(N=C(N)N)N1CCOCC1 [Moroxidine hydrochloride]
E. coli; [3]
  AK-based Prestwick Library Screening Results, E. coli (increase in extracellular AK activity): 0.5
[1]; [3]
  AK-based Prestwick Library Screening Results, A. baumannii (increase in extracellular AK activity): 0.4
[2]; [3]
  AK-based Prestwick Library Screening Results, S. aureus (increase in extracellular AK activity): 0.4
P. aeruginosa; [3]
  AK-based Prestwick Library Screening Results, P. aeruginosa (increase in extracellular AK activity): 0.3
K. pneumoniae; [3]
  AK-based Prestwick Library Screening Results, K. pneumoniae (increase in extracellular AK activity): 0.4
E. cloacae; [3]
  AK-based Prestwick Library Screening Results, E. cloacae (increase in extracellular AK activity): 0.3
E. faecium; [3]
  AK-based Prestwick Library Screening Results, E. faecium (increase in extracellular AK activity): 0.8

## CCNCC(O)c1cccc(O)c1 (stereo not shown) [Etilefrine hydrochloride]
E. coli; planktonic E. coli, positive cutoff 3-fold increase, read-out: AK-based Prestwick library screening result, E. coli (fold increase in extracellular AK activity)
  fold induction at 50 µM: 1
[1]; planktonic A. baumannii, positive cutoff 3-fold increase, read-out: AK-based Prestwick library screening result, A. baumannii (fold increase in extracellular AK activity)
  fold induction at 50 µM: 1.4
[2]; planktonic S. aureus, positive cutoff 3-fold increase, read-out: AK-based Prestwick library screening result, S. aureus (fold increase in extracellular AK activity)
  fold induction at 50 µM: 1.1
P. aeruginosa; planktonic P. aeruginosa, positive cutoff 3-fold increase, read-out: AK-based Prestwick library screening result, P. aeruginosa (fold increase in extracellular AK activity)
  fold induction at 50 µM: 1.1
K. pneumoniae; planktonic K. pneumoniae, positive cutoff 3-fold increase, read-out: AK-based Prestwick library screening result, K. pneumoniae (fold increase in extracellular AK activity)
  fold induction at 50 µM: 0.8
E. cloacae; planktonic E. cloacae, positive cutoff 3-fold increase, read-out: AK-based Prestwick library screening result, E. cloacae (fold increase in extracellular AK activity)
  fold induction at 50 µM: 1.5
E. faecium; planktonic E. faecium, positive cutoff 3-fold increase, read-out: AK-based Prestwick library screening result, E. faecium (fold increase in extracellular AK activity)
  fold induction at 50 µM: 1

## Cc1ncc(C[n+]2csc(CCO)c2C)c(N)n1 [Thiamine hydrochloride]
E. coli; planktonic, cutoff for positive 3-fold increase, read-out: AK-based Prestwick Library Screening Results, E. coli (fold increase in extracellular AK activity)
  fold induction at 50 µM: 1.4
[1]; planktonic, cutoff for positive 3-fold increase, read-out: AK-based Prestwick Library Screening Results, A. baumannii (fold increase in extracellular AK activity)
  fold induction at 50 µM: 1.3
[2]; planktonic, cutoff for positive 3-fold increase, read-out: AK-based Prestwick Library Screening Results, S. aureus (fold increase in extracellular AK activity)
  fold induction at 50 µM: 1.1
P. aeruginosa; planktonic, cutoff for positive 3-fold increase, read-out: AK-based Prestwick Library Screening Results, P. aeruginosa (fold increase in extracellular AK activity)
  fold induction at 50 µM: 1.3
K. pneumoniae; planktonic, cutoff for positive 3-fold increase, read-out: AK-based Prestwick Library Screening Results, K. pneumoniae (fold increase in extracellular AK activity)
  fold induction at 50 µM: 1.4
E. cloacae; planktonic, cutoff for positive 3-fold increase, read-out: AK-based Prestwick Library Screening Results, E. cloacae (fold increase in extracellular AK activity)
  fold induction at 50 µM: 1.3
E. faecium; planktonic, cutoff for positive 3-fold increase, read-out: AK-based Prestwick Library Screening Results, E. faecium (fold increase in extracellular AK activity)
  fold induction at 50 µM: 1

## O=c1ccc2cc(O[C@@H]3O[C@H](CO)[C@@H](O)[C@H](O)[C@H]3O)c(O)cc2o1 [Esculin Hydrate]
E. coli; planktonic, […], read-out: AK-based Prestwick Library Screening Results, E. coli (fold increase in extracellular AK activity)
  fold induction at 50 µM: 0.7
[1]; planktonic, […], read-out: AK-based Prestwick Library Screening Results, A. baumannii (fold increase in extracellular AK activity)
  fold induction at 50 µM: 0.8
[2]; planktonic, […], read-out: AK-based Prestwick Library Screening Results, S. aureus (fold increase in extracellular AK activity)
  fold induction at 50 µM: 0.7
P. aeruginosa; planktonic, […], read-out: AK-based Prestwick Library Screening Results, P. aeruginosa (fold increase in extracellular AK activity)
  fold induction at 50 µM: 0.8
K. pneumoniae; planktonic, […], read-out: AK-based Prestwick Library Screening Results, K. pneumoniae (fold increase in extracellular AK activity)
  fold induction at 50 µM: 0.6
E. cloacae; planktonic, […], read-out: AK-based Prestwick Library Screening Results, E. cloacae (fold increase in extracellular AK activity)
  fold induction at 50 µM: 0.9
E. faecium; planktonic, […], read-out: AK-based Prestwick Library Screening Results, E. faecium (fold increase in extracellular AK activity)
  fold induction at 50 µM: 0.9

## C[C@@H]1CCC[C@H](C)N1NC(=O)c1ccc(Cl)c(S(N)(=O)=O)c1 [Clopamide]
E. coli; [4]
  fold induction at 50 µM: 0.8
[1]; [5]
  fold induction at 50 µM: 0.8
[2]; [6]
  fold induction at 50 µM: 0.7
P. aeruginosa; [7]
  fold induction at 50 µM: 0.8
K. pneumoniae; [8]
  fold induction at 50 µM: 0.7
E. cloacae; [9]
  fold induction at 50 µM: 1
E. faecium; [10]
  fold induction at 50 µM: 0.9

## CC(C)COCC(CN(Cc1ccccc1)c1ccccc1)N1CCCC1 (stereo not shown) [Bepridil hydrochloride]
E. coli; [4]
  fold induction at 50 µM: 1.3
[1]; [5]
  fold induction at 50 µM: 1.5
[2]; [6]
  fold induction at 50 µM: 1.6
P. aeruginosa; [7]
  fold induction at 50 µM: 1.2
K. pneumoniae; [8]
  fold induction at 50 µM: 1
E. cloacae; [9]
  fold induction at 50 µM: 1.4
E. faecium; [10]
  fold induction at 50 µM: 1.1

## COc1cc2cc3c4cc(OC)c(OC)cc4cc[n+]3c(C)c2cc1OC.O.[Cl-] [Coralyne chloride hydrate]
E. coli; planktonic E. coli, […]
  AK-based Prestwick Library Screening Results, E. coli (increase in extracellular AK activity): 0.9
[1]; planktonic A. baumannii, cutoff for positive-scoring molecules 3-fold increase
  AK-based Prestwick Library Screening Results, A. baumannii (increase in extracellular AK activity): 0.8
[2]; planktonic S. aureus, cutoff for positive-scoring molecules 3-fold increase
  AK-based Prestwick Library Screening Results, S. aureus (increase in extracellular AK activity): 0.4
P. aeruginosa; planktonic P. aeruginosa, cutoff for positive-scoring molecules 3-fold increase
  AK-based Prestwick Library Screening Results, P. aeruginosa (increase in extracellular AK activity): 0.8
K. pneumoniae; planktonic K. pneumoniae, cutoff for positive-scoring molecules 3-fold increase
  AK-based Prestwick Library Screening Results, K. pneumoniae (increase in extracellular AK activity): 0.6
E. cloacae; planktonic E. cloacae, cutoff for positive-scoring molecules 3-fold increase
  AK-based Prestwick Library Screening Results, E. cloacae (increase in extracellular AK activity): 1.1
E. faecium; planktonic E. faecium, cutoff for positive-scoring molecules 3-fold increase
  AK-based Prestwick Library Screening Results, E. faecium (increase in extracellular AK activity): 0.9

## CC(C)NC[C@@H](O)COc1ccc(CC(N)=O)cc1 [(R)-(+)-Atenolol]
E. coli; [11]
  AK-based Prestwick Library Screening Results, E. coli (fold increase in extracellular AK activity): 1.3
[1]; [11]
  AK-based Prestwick Library Screening Results, A. baumannii (fold increase in extracellular AK activity): 1.3
[2]; [11]
  AK-based Prestwick Library Screening Results, S. aureus (fold increase in extracellular AK activity): 1.2
P. aeruginosa; [11]
  AK-based Prestwick Library Screening Results, P. aeruginosa (fold increase in extracellular AK activity): 1.2
K. pneumoniae; [11]
  AK-based Prestwick Library Screening Results, K. pneumoniae (fold increase in extracellular AK activity): 1.2
E. cloacae; [11]
  AK-based Prestwick Library Screening Results, E. cloacae (fold increase in extracellular AK activity): 1.3
E. faecium; [11]
  AK-based Prestwick Library Screening Results, E. faecium (fold increase in extracellular AK activity): 1.0

## Retrorsine
E. coli; planktonic, […]
  AK-based Prestwick Library Screening Results, E. coli (fold increase in extracellular AK activity): 1.3
[1]; planktonic, […]
  AK-based Prestwick Library Screening Results, A. baumannii (fold increase in extracellular AK activity): 1.2
[2]; planktonic, […]
  AK-based Prestwick Library Screening Results, S. aureus (fold increase in extracellular AK activity): 1.2
P. aeruginosa; planktonic, […]
  AK-based Prestwick Library Screening Results, P. aeruginosa (fold increase in extracellular AK activity): 1.2
K. pneumoniae; planktonic, […]
  AK-based Prestwick Library Screening Results, K. pneumoniae (fold increase in extracellular AK activity): 1.2
E. cloacae; planktonic, […]
  AK-based Prestwick Library Screening Results, E. cloacae (fold increase in extracellular AK activity): 1.5
E. faecium; planktonic, […]
  AK-based Prestwick Library Screening Results, E. faecium (fold increase in extracellular AK activity): 1.0
